Measurements reported in paper PMC7044277 (Nature Communications, 2020).
Where “and” joins values, the source holds several entries; their conditions need not be identical. Equal values may be shown once.

Experiments:
Experiment in all cases: β-arrestin2 recruitment (Tango)
Assay type in all cases: cell-based
5HT1F = target: T1, 5HT1F (Homo sapiens, UniProt P30939); conditions: for β-arrestin2 recruitment response, agonist mode (single replicate values): Fig_S10j; for Fig_S10j dose-response, drug alone (agonist mode), β-arrestin2 recruitment: single replicate values
T1 construct: expressed in transfected cells; host or cells: HTLA cells expressing TEV-fused β-arrestin2
T1 sequence (P30939 1-366): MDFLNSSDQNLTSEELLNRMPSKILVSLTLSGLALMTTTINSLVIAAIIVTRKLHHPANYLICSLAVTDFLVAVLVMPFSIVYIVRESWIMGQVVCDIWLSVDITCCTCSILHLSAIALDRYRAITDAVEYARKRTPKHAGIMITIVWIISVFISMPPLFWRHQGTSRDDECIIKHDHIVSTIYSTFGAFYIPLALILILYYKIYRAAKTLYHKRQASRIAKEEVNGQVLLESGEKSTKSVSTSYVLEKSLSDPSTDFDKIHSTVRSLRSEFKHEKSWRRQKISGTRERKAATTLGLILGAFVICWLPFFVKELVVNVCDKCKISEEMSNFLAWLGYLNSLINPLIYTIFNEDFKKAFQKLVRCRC

5HT1A = target: T2, 5HT1A (Homo sapiens, UniProt P08908); conditions: Fig_S10f, single replicates
T2 construct: expressed in transfected cells; host or cells: HTLA cells expressing TEV-fused β-arrestin2
T2 sequence (P08908 1-422): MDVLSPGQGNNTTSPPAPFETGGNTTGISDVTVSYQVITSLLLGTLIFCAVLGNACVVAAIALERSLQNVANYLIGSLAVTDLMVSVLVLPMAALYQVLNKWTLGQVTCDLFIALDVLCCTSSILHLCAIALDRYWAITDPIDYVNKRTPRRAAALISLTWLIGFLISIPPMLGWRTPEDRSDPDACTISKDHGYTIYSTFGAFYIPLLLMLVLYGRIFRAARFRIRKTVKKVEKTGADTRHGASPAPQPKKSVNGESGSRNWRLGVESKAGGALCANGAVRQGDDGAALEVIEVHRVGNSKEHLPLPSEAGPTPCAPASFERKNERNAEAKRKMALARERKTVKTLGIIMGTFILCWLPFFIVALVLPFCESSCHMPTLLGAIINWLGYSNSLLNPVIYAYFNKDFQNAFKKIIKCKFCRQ

5HT4 = target: T3, 5HT4 (Homo sapiens, UniProt Q13639); conditions: Fig_S10n, drug alone
T3 construct: expressed in transfected cells; host or cells: HTLA cells expressing TEV-fused β-arrestin2
T3 sequence (Q13639 whole entry, the tested form may be a part): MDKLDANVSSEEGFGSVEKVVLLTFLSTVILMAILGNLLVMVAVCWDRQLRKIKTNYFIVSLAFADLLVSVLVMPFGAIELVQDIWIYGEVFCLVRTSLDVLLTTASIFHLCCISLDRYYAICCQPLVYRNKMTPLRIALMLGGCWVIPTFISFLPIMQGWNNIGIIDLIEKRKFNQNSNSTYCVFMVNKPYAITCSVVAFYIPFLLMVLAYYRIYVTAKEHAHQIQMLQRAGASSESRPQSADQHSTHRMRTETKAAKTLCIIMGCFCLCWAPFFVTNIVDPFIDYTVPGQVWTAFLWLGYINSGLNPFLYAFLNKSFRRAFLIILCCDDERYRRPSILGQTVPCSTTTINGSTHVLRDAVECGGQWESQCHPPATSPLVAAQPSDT

## NCCc1c[nH]c2ccc(O)cc12 [serotonin]
5HT1F; Log[Drug] -8
  β-arrestin2 recruitment response, agonist mode (single replicate values): -3.452 and 0.8129 and -0.7741 and 0.7081 and -0.3166
5HT1F; Log[Drug] -8.52
  β-arrestin2 recruitment response, agonist mode (single replicate values): 1.467 and -0.5936 and -0.6771 and -0.2347 and -1.695 and -2.24 and -2.059 and -1.682 and -0.1562 and 2.169 and 0.8707 and -1.81
5HT1F; Log[Drug] -9
  β-arrestin2 recruitment response, agonist mode (single replicate values): -0.04426 and -0.9855 and -1.843 and -0.9137 and -1.161 and -1.413 and 1.14 and -2.447 and -1.948 and 1.946 and -0.5 and -0.1377
5HT1F; Log[Drug] -9.52
  β-arrestin2 recruitment response, agonist mode (single replicate values): -2.101 and 2.6714 and -0.3744 and -0.1804 and 3.084 and -0.3427 and -1.809 and -0.4001 and 2.85 and -0.1339 and -0.298
5HT1F; Log[Drug] -10
  β-arrestin2 recruitment response, agonist mode (single replicate values): -0.8375 and -0.7488 and -1.773 and 1.74 and -2.24 and -1.559 and -0.2741 and -1.133 and -0.7969 and 0.416 and -0.2133 and -1.1997
5HT1F; Log[Drug] -10.52
  β-arrestin2 recruitment response, agonist mode (single replicate values): -2.914 and -1.511 and -1.366 and -1.154 and -2.628 and -0.5924 and -0.6184 and 5.324 and 0.8942 and 0.1831 and -0.2458 and -1.109
5HT1F; Log[Drug] -11
  β-arrestin2 recruitment response, agonist mode (single replicate values): 4.606 and -2.13 and -1.057 and 0.00776 and -2.261 and -1.2903 and -0.3379 and -1.603 and 0.8607 and 0.8858 and 0.4773 and -0.3843
5HT1F; Log[Drug] -11.52
  β-arrestin2 recruitment response, agonist mode (single replicate values): -1.978 and -2.064 and -1.769 and 3.255 and 2.53 and 1.832 and 0.0271 and 2.781 and -0.9914 and 1.71 and -0.0711 and -0.3911
5HT1F; Log[Drug] -12
  β-arrestin2 recruitment response, agonist mode (single replicate values): -1.651 and 2.46 and -1.762 and -0.6984 and -0.5958 and -0.3302 and -0.006376 and -1.878 and -2.439 and 3.47 and -0.3101 and 0.7769
5HT1F; Log[Drug] -5
  Fig_S10j dose-response, drug alone (agonist mode), β-arrestin2 recruitment: 60.4606 and 65.0002 and 90.3142 and 57.9444 and 78.7631 and 57.8244 and 78.5234 and 70.8275 and 63.3071
5HT1F; Log[Drug] -5.52
  Fig_S10j dose-response, drug alone (agonist mode), β-arrestin2 recruitment: 68.8966 and 66.6667 and 38.5966 and 34.7166 and 67.3748 and 41.3918 and 50.0717 and 43.7042 and 56.4145 and 60.2307 and 56.8071
5HT1F; Log[Drug] -6
  Fig_S10j dose-response, drug alone (agonist mode), β-arrestin2 recruitment: 65.3117 and 41.5532 and 32.9512 and 18.8414 and 35.6041 and 33.2006 and 38.6085 and 22.7128 and 20.6455 and 38.0393 and 43.4213 and 39.1952
5HT1F; Log[Drug] -6.52
  Fig_S10j dose-response, drug alone (agonist mode), β-arrestin2 recruitment: 37.7864 and 17.7453 and 10.6352 and 8.195 and 10.8807 and 16.9203 and 24.2636 and 7.26 and 7.434 and 25.9629 and 24.0976 and 19.2564
5HT1F; Log[Drug] -7
  Fig_S10j dose-response, drug alone (agonist mode), β-arrestin2 recruitment: 0.08171 and 0.8827 and 2.8945 and 3.486 and 0.8409 and 1.495 and 3.165 and 2.979 and 1.237 and 11.4622 and 7.762 and 4.191
5HT1F; Log[Drug] -7.52
  Fig_S10j dose-response, drug alone (agonist mode), β-arrestin2 recruitment: -1.661 and -1.926 and 1.238 and 3.081 and -2.387 and 1.699 and 4.498 and -1.4313 and 5.445 and 5.244 and 1.302 and 0.4992
5HT1A; Log[Drug] -9.52
  β-arrestin2 recruitment response, agonist mode (normalized): 0.051 and -0.6094 and 0.4564 and 0.9983 and -0.6725 and -0.3119 and 0.3423 and -0.09315 and -0.541 and 0.6114
5HT1A; Log[Drug] -10
  β-arrestin2 recruitment response, agonist mode (normalized): -0.5013 and -1.706 and 4.314 and 0.8312 and -0.5054 and -0.4971 and 1.761 and 0.86 and 0.493 and 1.8886 and 0.4834
5HT1A; Log[Drug] -10.52
  β-arrestin2 recruitment response, agonist mode (normalized): 0.008354 and -1.487 and -0.1989 and 2.088 and -0.6683 and 3.151 and -0.06065 and -0.5318 and -0.2913
5HT1A; Log[Drug] -11
  β-arrestin2 recruitment response, agonist mode (normalized): -0.8312 and 0.8491 and 0.1249 and -0.3544 and 0.3342 and 1.248 and -0.5329 and 0.3 and -1.04 and 0.4834
5HT1A; Log[Drug] -11.52
  β-arrestin2 recruitment response, agonist mode (normalized): -0.8271 and 2.483 and -0.08669 and -0.3213 and -0.5138 and 3.162 and -0.4376 and 0.6466 and -0.1376 and 0.477 and 1.383 and 1.636
5HT1A; Log[Drug] -12
  β-arrestin2 recruitment response, agonist mode (normalized): -0.1546 and 0.0408 and 0.03825 and -0.07649 and -0.33 and -0.5096 and -0.8188 and 0.4787 and -0.4787 and 6.658 and -0.3041 and 1.905
5HT4; Log[Drug] -6.52
  β-arrestin2 recruitment response (dose-response source data, replicate values): 4.364 and 3.213 and 1.27 and 4.689 and 5.849 and 4.639 and 0.7041 and 1.028 and 0.8286
5HT4; Log[Drug] -7
  β-arrestin2 recruitment response (dose-response source data, replicate values): 0.4502 and 1.04 and 0.7749 and 1.703 and 3.757 and 0.2045 and 0.7898
5HT4; Log[Drug] -7.52
  β-arrestin2 recruitment response (dose-response source data, replicate values): 0.2639 and 1.123 and 0.6731 and 1.44 and 0.8323 and -0.173 and -0.1455 and 0.1779
5HT4; Log[Drug] -8
  β-arrestin2 recruitment response (dose-response source data, replicate values): 0.909 and 1.368 and 1.768 and 1.945 and 1.002 and 4.528 and -0.04204 and 0.2773 and -0.04931
5HT4; Log[Drug] -8.52
  β-arrestin2 recruitment response (dose-response source data, replicate values): 1.014 and 0.4607 and 1.27 and 2.026 and 2.149 and 0.7135 and 0.536
5HT4; Log[Drug] -9
  β-arrestin2 recruitment response (dose-response source data, replicate values): 4.112 and 0.5135 and 0.7781 and 0.7219 and 2.151 and -0.2021 and -0.04689 and 0.1787
5HT4; Log[Drug] -9.52
  β-arrestin2 recruitment response (dose-response source data, replicate values): -0.1745 and 0.2987 and 0.5551 and 1.654 and 2.192 and 1.098 and -0.3371 and 0.1099
5HT4; Log[Drug] -10
  β-arrestin2 recruitment response (dose-response source data, replicate values): 0.07451 and 0.7799 and 1.035 and 0.7688 and 1.653 and 0.865 and -0.1787 and 0.1471
5HT4; Log[Drug] -10.52
  β-arrestin2 recruitment response (dose-response source data, replicate values): -0.001242 and 0.2372 and 0.7047 and -0.005208 and 0.949 and 0.8156 and -0.3363 and -0.2741
5HT4; Log[Drug] -11
  β-arrestin2 recruitment response (dose-response source data, replicate values): 0.09934 and 0.2831 and 0.9059 and 0.201 and 0.5729 and -0.1083 and 0.6362 and -0.2773
5HT4; Log[Drug] -11.52
  β-arrestin2 recruitment response (dose-response source data, replicate values): -0.1788 and 1.011 and 0.1838 and 2.165 and 0.3594 and 0.526 and -0.2336 and -0.308 and 0.3767
5HT4; Log[Drug] -12
  β-arrestin2 recruitment response (dose-response source data, replicate values): 0.2813 and -0.1521 and 0.7458 and 0.6208 and 0.6615 and -0.1358 and -0.3662
